Source: patent US12036222B2, “Methods of treating cancers overexpressing CARM1 with EZH2 inhibitors and a PARP inhibitor” (The Wistar Institut of Anatomy and Biology, priority 2018, dated 2024)
Entries after “also recorded” stand apart in the source; their conditions may differ.

Test system: A1847 parental and CARM1 knockout cells
Assay: Epigenetic targeting small molecule set screen (14-day colony formation)
Assay type: cell-based, human
Conditions: 14 days, normalized to vehicle
Procedure: FIG. 26 illustrates that CARM1-expressing cells are selectively sensitized to EZH2 inhibitors. Equal number of parental control or CARM1 knockout […] cells were plated and treated with each of the 23 individual epigenetic inhibitors for 14 days. The media with the inhibitors was refreshed every 3 days. Cell growth was quantified as integrated density using NIH Image J software. Quantification of the average integrated density graphed as a scatter plot. The X-axis indicates the relative growth of treated CARM1 high parental […] cells compared with DMSO vehicle controls. Y-axis indicates the relative growth of treated CARM1 knockout […] cells compared with DMSO vehicle controls. n=4; and error bars represents SEM. FIG. 27 illustrates a table of EZH2 inhibitors that are selective against CARM1 expression. CARM1-high parental controls and CARM1 knockout […] cells were treated with the indicated concentration of the small molecules in a 14-day colony formation assay. Integrated density for each well was calculated using NIH Image J software. The relative growth of the indicated cells was determined by normalizing to the vehicle control treated cells. n=4 and p-value was calculated using a two-tailed t-test. […] parental and CARM1 knockout cells were plated in 24-well plates and treated with 24 epigenetic compounds. Cell medium was changed every three days with appropriate drug doses for 14 days or until control wells became confluent. Colonies were washed twice with PBS and fixed with 10% methanol and 10% acetic acid in distilled water. Fixed colonies were stained with 0.005% crystal violet. Integrated density was measured using NIH ImageJ software as a surrogate for cell growth.

Compound | selective growth suppression of CARM1-expressing vs CARM1 KO cells
CCCc1cc(C)[nH]c(=O)c1CNC(=O)c1cc(-c2ccc(N3CCN(C(C)C)CC3)nc2)cc2c1cnn2C(C)C [UNC1999, 1-isopropyl-6-(6-(4-isopropylpiperazin-1-yl)pyridin-3-yl)-N-((6-methyl-2-oxo-4-propyl-1,2-dihydropyridin-3-yl)methyl)-1H-indazole-4-carboxamide] | showed selectivity against CARM1-expressing cells; also recorded: selectively sensitive
CC(=O)Nc1ccc(C(=O)Nc2ccccc2N)cc1 [CI994] | equally effective in suppressing the growth of both CARM-expressing and KO cells; also recorded: showed no difference between parental and CARM1 knockout cells
